Results reported in patent US11111237B2, “Bicyclic compound and use thereof” (SK BIOPHARMACEUTICALS CO., LTD., priority 2019, dated 2021).
Where a name gives a salt, the structure may show the parent alone.

Target: PRMT5-MEP50 enzyme complex (Homo sapiens (Human), UniProt O14744)
Assay: PRMT5 enzyme activity in vitro assay (methylation of histone H4R3, ELISA absorbance at 450 nm)
Type: biochemical
Conditions: SAM, histone H4 peptide, room temperature 2 hours, 8 points from 10 μM to 0.128 nM
Procedure: Method for Measuring Enzyme Activity
In vitro assay: PRMT5-MEP50 enzyme complex, cofactor S-adenosylmethionine (SAM) and histone H4 peptide were reacted in vitro, and methylation of arginine (H4R3)—which is the third amino acid of histone H4—was measured in order to measure the enzyme activity of PRMT5.
Reagents: PRMT5-MEP50 enzyme complex (Catalog No. 51045), blocking buffer (52100-B), histone methyltransferase reaction buffer 2 (4×HMT assay buffer 2, Catalog No. 52170), and primary antibody (primary antibody 4-3, Catalog No. 52150) were purchased from BPS Bioscience (USA). The histone H4 peptide (1-20 amino acids) was custom made by Komabiotech (Korea) and used. S-adenosylmethionine was purchased from NEB (New England Biolabs, USA, Catalog No. B9003S). Plates for coating histone H4 peptide, washing buffer and color development reagent were purchased from the following vendors: Plate (Immobilizer™-Amino Plate, NUNC, Denmark, Catalog No. 436023), carbonate-bicarbonate buffer (Sigma-Aldrich, USA, Catalog No. C3041), washing buffer (10×TBST, Biosesang, Korea, Catalog No. T2005), TMB ELISA substrate (Abcam, UK, Catalog No. ab210902), horseradish peroxidase (HRP)-conjugated antibody (Abcam, UK, Catalog No. ab6721).
Experimental procedure: The histone H4 peptide was diluted with carbonate-bicarbonate buffer and prepared to 100 μg/mL, and then dispensed onto the plate per 100 μL and reacted at 37° C. for 1 hour. PRMT5-MEP50 enzyme complex and S-adenosylmethionine were diluted with histone methyltransferase reaction buffer to prepare 5 μg/mL and 2 μM, respectively, and then 20 μL of PRMT5-MEP50 enzyme complex and 25 μL of S-adenosylmethionine were dispensed onto the plate prepared above. 5 μL of the compound diluted with 10% dimethyl sulfoxide solution was added thereto and reacted at room temperature for 2 hours (final volume=50 μL). The concentration of the compound was diluted 1:5 from 10 μM until the lowest concentration of 0.128 nM, and 8 points were used for the test. After preparing the primary antibody by diluting 1:2000 with blocking buffer, 100 μL was added to the plate and reacted at room temperature for 1 hour. After preparing horseradish peroxidase-conjugated antibody by diluting 1:10,000 with blocking buffer, 100 μL was added to the plate and reacted at room temperature for 1 hour. 100 μL of TMB substrate was added and reacted for 3 minutes at room temperature, and 100 μL of 1 N sulfuric acid was then added to terminate the reaction. Then, the absorbance at 450 nm was measured to calculate the IC50 value of the compound. (+++: 1 to 100 nM, ++: greater than 100 to 1,000 nM, +: greater than 1,000 to 10,000 nM)

PRMT5-MEP50 enzyme complex, sequence (O14744 2-637): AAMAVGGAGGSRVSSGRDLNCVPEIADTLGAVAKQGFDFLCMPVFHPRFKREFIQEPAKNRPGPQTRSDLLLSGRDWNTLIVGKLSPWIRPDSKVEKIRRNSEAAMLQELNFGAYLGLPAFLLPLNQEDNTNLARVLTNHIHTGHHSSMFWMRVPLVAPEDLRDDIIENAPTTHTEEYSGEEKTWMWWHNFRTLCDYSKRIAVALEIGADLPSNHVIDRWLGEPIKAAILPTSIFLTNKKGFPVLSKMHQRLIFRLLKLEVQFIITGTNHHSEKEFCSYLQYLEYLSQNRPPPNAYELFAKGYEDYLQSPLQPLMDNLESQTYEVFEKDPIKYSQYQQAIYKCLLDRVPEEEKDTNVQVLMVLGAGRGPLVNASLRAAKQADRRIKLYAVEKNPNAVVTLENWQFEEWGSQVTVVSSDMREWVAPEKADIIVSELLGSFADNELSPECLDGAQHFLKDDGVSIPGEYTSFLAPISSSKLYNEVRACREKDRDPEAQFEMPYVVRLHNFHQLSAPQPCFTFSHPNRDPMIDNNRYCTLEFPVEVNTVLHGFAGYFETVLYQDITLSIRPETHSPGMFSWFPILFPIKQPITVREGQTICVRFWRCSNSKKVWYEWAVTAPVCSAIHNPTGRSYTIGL
PRMT5-MEP50 enzyme complex, sequence (Q9BQA1 2-342 partner): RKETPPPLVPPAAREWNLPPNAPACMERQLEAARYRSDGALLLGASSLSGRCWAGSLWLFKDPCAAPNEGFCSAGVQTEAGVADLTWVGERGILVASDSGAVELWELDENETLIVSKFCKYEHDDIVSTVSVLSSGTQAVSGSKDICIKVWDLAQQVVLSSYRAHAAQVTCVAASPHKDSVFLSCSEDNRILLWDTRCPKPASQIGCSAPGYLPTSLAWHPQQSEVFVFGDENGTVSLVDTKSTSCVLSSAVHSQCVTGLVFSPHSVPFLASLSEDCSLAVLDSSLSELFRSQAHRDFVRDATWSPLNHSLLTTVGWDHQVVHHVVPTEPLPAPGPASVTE

| Compound | IC50 |
| --- | --- |
| O=C1c2ccc(CN3CCC(F)CC3)cc2OCCN1C[C@H](O)CN1CCc2ccccc2C1 [Example 32, 4-[(2R)-3-(3,4-dihydro-1H-isoquinolin-2-yl)-2-hydroxy-propyl]-8-[(4-fluoro-1-piperidyl)methyl]-2,3-dihydro-1,4-benzoxazepin-5-one] | 0.001 to 0.1 µM |
| O=C1c2ccc(OCc3ccc(F)nc3)cc2OCCN1C[C@H](O)CN1CCc2ccccc2C1 [Example 61, 4-[(2R)-3-(3,4-dihydro-1H-isoquinolin-2-yl)-2-hydroxy-propyl]-8-[(6-fluoro-3-pyridyl)methoxy]-2,3-dihydro-1,4-benzoxazepin-5-one] | 0.1 to 1 µM |
| COC[C@H]1CCCN1Cc1ccc2c(c1)OCCN(C[C@H](O)CN1CCc3ccccc3C1)C2=O [Example 50, 4-[(2R)-3-(3,4-dihydro-1H-isoquinolin-2-yl)-2-hydroxy-propyl]-8-[[(2R)-2-(methoxymethyl)pyrrolidin-1-yl]methyl]-2,3-dihydro-1,4-benzoxazepin-5-one] | 0.001 to 0.1 µM |
| CC(=O)N1C2CCC1CC(Oc1ccc3c(c1)OCCN(C[C@H](O)CN1CCc4ccccc4C1)C3=O)C2 (stereo partly drawn) [Example 173, 8-[(8-acetyl-8-azabicyclo[3.2.1]octan-3-yl)oxy]-4-[(2R)-3-(3,4-dihydro-1H-isoquinolin-2-yl)-2-hydroxy-propyl]-2,3-dihydro-1,4-benzoxazepin-5-one] | 0.001 to 0.1 µM |
| O=C1c2ccc(C(=O)N3C4CCC3COC4)cc2OCCN1C[C@H](O)CN1CCc2ccccc2C1 [Example 189, 4-[(2R)-3-(3,4-dihydro-1H-isoquinolin-2-yl)-2-hydroxy-propyl]-8-(3-oxa-8-azabicyclo[3.2.1]octan-8-carbonyl)-2,3-dihydro-1,4-benzoxazepin-5-one] | 0.1 to 1 µM |
| O=C1c2ccc(OCc3ccnc(F)c3F)cc2OCCN1C[C@H](O)CN1CCc2ccccc2C1 [Example 60, 8-[(2,3-difluoro-4-pyridyl)methoxy]-4-[(2R)-3-(3,4-dihydro-1H-isoquinolin-2-yl)-2-hydroxy-propyl]-2,3-dihydro-1,4-benzoxazepin-5-one] | 0.1 to 1 µM |
| O=C1c2ccc(OC3CCOCC3)cc2OCCN1C[C@H](O)CN1CCc2ccccc2C1 [Example 64, 4-[(2R)-3-(3,4-dihydro-1H-isoquinolin-2-yl)-2-hydroxy-propyl]-8-tetrahydropyran-4-yloxy-2,3-dihydro-1,4-benzoxazepin-5-one] | 0.001 to 0.1 µM |
| CCN(CC)C(=O)COc1ccc2c(c1)OCCN(C[C@H](O)CN1CCc3ccccc3C1)C2=O [Example 75, 2-[[4-[(2R)-3-(3,4-dihydro-1H-isoquinolin-2-yl)-2-hydroxy-propyl]-5-oxo-2,3-dihydro-1,4-benzoxazepin-8-yl]oxy]-N,N-diethyl-acetamide] | 0.1 to 1 µM |
| O=C1c2ccc(OC(F)(F)F)cc2CCCN1C[C@H](O)CN1CCc2ccccc2C1 [Example 6, 2-[(2R)-3-(3,4-dihydro-1H-isoquinolin-2-yl)-2-hydroxy-propyl]-7-(trifluoromethoxy)-4,5-dihydro-3H-2-benzazepin-1-one] | 0.001 to 0.1 µM |
| CCOc1ccc2c(c1)CCCN(C[C@H](O)CN1CCc3ccccc3C1)C2=O [Example 7, 2-[(2R)-3-(3,4-dihydro-1H-isoquinolin-2-yl)-2-hydroxy-propyl]-7-ethoxy-4,5-dihydro-3H-2-benzazepin-1-one] | 0.1 to 1 µM |
| O=C1c2ccc(OC3CCN(C4CCC4)CC3)cc2OCCN1C[C@H](O)CN1CCc2ccccc2C1 [Example 91, 8-[(1-cyclobutyl-4-piperidyl)oxy]-4-[(2R)-3-(3,4-dihydro-1H-isoquinolin-2-yl)-2-hydroxy-propyl]-2,3-dihydro-1,4-benzoxazepin-5-one] | 0.1 to 1 µM |
| O=C1c2ccc(CN3CCCC(O)C3)cc2OCCN1C[C@H](O)CN1CCc2ccccc2C1 (stereo partly drawn) [Example 44, 4-[(2R)-3-(3,4-dihydro-1H-isoquinolin-2-yl)-2-hydroxy-propyl]-8-[(3-hydroxy-1-piperidyl)methyl]-2,3-dihydro-1,4-benzoxazepin-5-one] | 0.001 to 0.1 µM |
| CC1CCN(Cc2ccc3c(c2)OCCN(C[C@H](O)CN2CCc4ccccc4C2)C3=O)CC1 [Example 27, 4-[(2R)-3-(3,4-dihydro-1H-isoquinolin-2-yl)-2-hydroxy-propyl]-8-[(4-methyl-1-piperidyl)methyl]-2,3-dihydro-1,4-benzoxazepin-5-one] | 0.001 to 0.1 µM |

Results, then the compound that gave them:

| IC50 | Compound |
| --- | --- |
| 0.1 to 1 µM | CN1CCN(C[C@H](O)CN2CCc3ccccc3C2)C(=O)c2ccc(OCc3ccc(F)cn3)cc21 [Example 139, 4-[(2R)-3-(3,4-dihydro-1H-isoquinolin-2-yl)-2-hydroxy-propyl]-8-[(5-fluoro-2-pyridyl)methoxy]-1-methyl-2,3-dihydro-1,4-benzodiazepin-5-one] |
| 0.1 to 1 µM | CCN1CC[C@@H](Oc2ccc3c(c2)OCCN(C[C@H](O)CN2CCc4ccccc4C2)C3=O)C1 [Example 99, 4-[(2R)-3-(3,4-dihydro-1H-isoquinolin-2-yl)-2-hydroxy-propyl]-8-[(3R)-1-ethylpyrrolidin-3-yl]oxy-2,3-dihydro-1,4-benzoxazepin-5-one] |
| 0.1 to 1 µM | C[C@@H]1CN(C[C@H](O)CN2CCc3ccccc3C2)C(=O)c2ccc(OC3CCN(CCO)CC3)cc2O1 [Example 261, (2R)-4-[(2R)-3-(3,4-dihydro-1H-isoquinolin-2-yl)-2-hydroxy-propyl]-8-[[1-(2-hydroxyethyl)-4-piperidyl]oxy]-2-methyl-2,3-dihydro-1,4-benzoxazepin-5-one di hydrochloride] |
| 0.1 to 1 µM | O=C(c1ccc2c(c1)OCCN(C[C@H](O)CN1CCc3ccccc3C1)C2=O)N1CCC(C(F)(F)F)CC1 [Example 186, 4-[(2R)-3-(3,4-dihydro-1H-isoquinolin-2-yl)-2-hydroxy-propyl]-8-[4-(trifluoromethyl)piperidine-1-carbonyl]-2,3-dihydro-1,4-benzoxazepin-5-one] |
| 0.1 to 1 µM | O=C(c1ccc2c(c1)OCCN(C[C@H](O)CN1CCc3ccccc3C1)C2=O)N1CCC(F)(F)C1 [Example 177, 8-(3,3-difluoropyrrolidin-1-carbonyl)-4-[(2R)-3-(3,4-dihydro-1H-isoquinolin-2-yl)-2-hydroxy-propyl]-2,3-dihydro-1,4-benzoxazepin-5-one] |
| 0.1 to 1 µM | CC(=O)N1CCN(Cc2ccc3c(c2)OC(C)(C)CN(C[C@H](O)CN2CCc4ccccc4C2)C3=O)CC1 [Example 167, 8-[(4-acetylpiperazin-1-yl)methyl]-4-[(2R)-3-(3,4-dihydro-1H-isoquinolin-2-yl)-2-hydroxy-propyl]-2,2-dimethyl-3H-1,4-benzoxazepin-5-one] |
| 0.1 to 1 µM | O=C1c2ccc(OC3CCN(CCF)CC3)nc2OCCN1C[C@H](O)CN1CCc2ccccc2C1 [Example 164, 4-[(2R)-3-(3,4-dihydro-1H-isoquinolin-2-yl)-2-hydroxy-propyl]-8-[[1-(2-fluoroethyl)-4-piperidyl]oxy]-2,3-di hydropyrido[3,2-f][1,4]oxazepin-5-one] |
| 0.1 to 1 µM | CC(O)CN1CC[C@@H](Oc2ccc3c(c2)OCCN(C[C@H](O)CN2CCc4ccccc4C2)C3=O)[C@H](F)C1 (stereo partly drawn) [Example 254, 4-[(2R)-3-(3,4-dihydro-1H-isoquinolin-2-yl)-2-hydroxy-propyl]-8-[[(3R,4R)-3-fluoro-1-(2-hydroxypropyl)-4-piperidyl]oxy]-2-methyl-2,3-dihydro-1,4-benzoxazepin-5-one divalnet hydrochloride] |
| 0.1 to 1 µM | CCOCCN1CCC(Oc2ccc3c(c2)O[C@H](C)CN(C[C@H](O)CN2CCc4ccccc4C2)C3=O)CC1 [Example 240, (2R)-4-[(2R)-3-(3,4-dihydro-1H-isoquinolin-2-yl)-2-hydroxy-propyl]-8-[[1-(2-ethoxyethyl)-4-piperidyl]oxy]-2-methyl-2,3-dihydro-1,4-benzoxazepin-5-one] |
| 0.1 to 1 µM | CC(c1ccc2c(c1)OCCN(C[C@H](O)CN1CCc3ccccc3C1)C2=O)N1CCOCC1 (stereo partly drawn) [Example 221, 4-[(2R)-3-(3,4-dihydro-1H-isoquinolin-2-yl)-2-hydroxy-propyl]-8-(1-morpholinoethyl)-2,3-dihydro-1,4-benzoxazepin-5-one] |
| 0.1 to 1 µM | O=C(c1ccc2c(c1)OCCN(C[C@H](O)CN1CCc3ccccc3C1)C2=O)N1CCCC(C(F)(F)F)C1 (stereo partly drawn) [Example 185, 4-[(2R)-3-(3,4-dihydro-1H-isoquinolin-2-yl)-2-hydroxy-propyl]-8-[3-(trifluoromethyl)piperidine-1-carbonyl]-2,3-dihydro-1,4-benzoxazepin-5-one] |
